Target: T1, human SARM1(50-724) (Homo sapiens, UniProt Q6SZW1)
T1 construct: 40 nM human SARM1(50-724)
T1 sequence (Q6SZW1 50-724): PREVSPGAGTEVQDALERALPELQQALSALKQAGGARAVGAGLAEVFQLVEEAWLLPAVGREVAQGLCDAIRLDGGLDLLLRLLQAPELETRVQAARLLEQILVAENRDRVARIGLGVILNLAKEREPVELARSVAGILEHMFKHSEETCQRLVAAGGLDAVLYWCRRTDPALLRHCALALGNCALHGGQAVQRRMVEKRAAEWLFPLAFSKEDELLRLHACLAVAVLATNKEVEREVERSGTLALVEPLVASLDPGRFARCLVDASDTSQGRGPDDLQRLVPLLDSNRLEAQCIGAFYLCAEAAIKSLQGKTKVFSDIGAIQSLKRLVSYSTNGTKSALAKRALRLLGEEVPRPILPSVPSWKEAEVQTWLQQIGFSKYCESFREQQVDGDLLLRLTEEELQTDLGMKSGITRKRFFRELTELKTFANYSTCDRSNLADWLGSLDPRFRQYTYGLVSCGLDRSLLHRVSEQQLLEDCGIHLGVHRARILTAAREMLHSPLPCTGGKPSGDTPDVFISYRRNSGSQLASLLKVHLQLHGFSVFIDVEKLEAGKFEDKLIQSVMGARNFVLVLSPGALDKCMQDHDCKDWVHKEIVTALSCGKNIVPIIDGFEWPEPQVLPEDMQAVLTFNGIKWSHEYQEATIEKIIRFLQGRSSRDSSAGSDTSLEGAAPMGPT
Assay: SARM1 NADase biochemical assay (HPLC of NAD and NAM)
Settings: 40 nM human SARM1(50-724), 0.3 mM NMN, 20 μM NAD, 60 minutes room temperature; dose-response from 100 μM, 1:3 dilution
Protocol: Each reaction was run at a volume of 20 μL containing 50 μM compound (dissolved in DMSO; final concentration of DMSO is 1% v/v), 40 nM human SARM1(50-724), 0.3 mM NMN, 20 μM NAD, 1 mM TCEP, 25 mM HEPES pH 7.4, 10 mM KCl and 10 mM MgCl2. The reaction was incubated at room temperature for 60 minutes and quenched with 20 μL of 0.4% formic acid. The samples were run on Agilent HPLC 1260 Infinity II with Synergi 2.5 μM Fusion-RP 100 Å (100×3.0 mm) LC column from Phenomenex. Total run time for each sample was 4 minutes. The run was isocratic with 1.5% methanol in 40 mM ammonium acetate pH 6.0. Samples were run at a flow rate of 0.8 mL/min at 55° C. Peak areas of NAD and NAM were determined using OpenLAB CDS (Chem Station edition) software. For dose-response, the compound was diluted serially 1:3 in DMSO and added to the reaction starting at a final compound concentration of 100 μM in 1% DMSO.

Compound	IC50 [µM]
CCc1c(-c2ccncc2)n[nH]c1NC(=O)CCc1ccc(Cl)s1 [Example 17]	< 1
Cc1c(-c2ccncc2)n[nH]c1NC(=O)CSc1ccc(Cl)cc1 [Example 63, 2-((4-Chlorophenyl)thio)-N-(4-methyl-3-(pyridin-4-yl)-1H-pyrazol-5-yl)acetamide]	< 1
Cc1c(-c2ccncc2)n[nH]c1NC(=O)CS(=O)(=O)c1ccc(Cl)cc1 [Example 121, 2-((4-chlorophenyl)sulfonyl)-N-(4-methyl-3-(pyridin-4-yl)-1H-pyrazol-5-yl)acetamide]	< 1
Cc1c(-c2ccncc2)n[nH]c1NC(=O)NCc1ccc(Cl)nc1 [Example 143, 1-[(6-Chloropyridin-3-yl)methyl]-3-[4-methyl-3-(pyridin-4-yl)-1H-pyrazol-5-yl]urea]	< 1
O=C(CCc1ccc(Br)cc1)Nc1cnn(-c2ccncc2)c1 [Example 114, 3-(4-Bromophenyl)-N-(1-(pyridin-4-yl)-1H-pyrazol-4-yl)propanamide]	< 1
Cc1c(-c2ccncc2)n[nH]c1NC(=O)CCc1ccc2ccccc2c1 [Example 28, N-(4-Methyl-3-(pyridin-4-yl)-1H-pyrazol-5-yl)-3-(naphthalen-2-yl)propanamide]	1 to 10
Cc1c(-c2ccncc2)n[nH]c1NC(=O)CCc1ccc(F)c(F)c1 [Example 44, 3-(3,4-Difluorophenyl)-N-(4-methyl-3-(pyridin-4-yl)-1H-pyrazol-5-yl)propanamide]	< 1
Cc1c(NC(=O)CCc2ccc(Cl)nc2)cnn1-c1ccncc1 [Example 82]	< 1
O=C(CCc1ccc2c(c1)OCO2)Nc1cc(-c2ccncc2)n[nH]1 [Example 99, 3-(Benzo[d][1,3]dioxol-5-yl)-N-(3-(pyridin-4-yl)-1H-pyrazol-5-yl)propanamide]	1 to 10
Cc1c(-c2ccncc2)n[nH]c1NC(=O)CC1CCCc2cc(Cl)ccc21 (centres unmarked) [Example 68, 2-(6-Chloro-1,2,3,4-tetrahydronaphthalen-1-yl)-N-[4-methyl-3-(pyridin-4-yl)-1H-pyrazol-5-yl]acetamide]	1 to 10
Cc1cccc(CCC(=O)Nc2[nH]nc(-c3ccncc3)c2C)c1 [Example 25, N-(4-Methyl-3-(pyridin-4-yl)-1H-pyrazol-5-yl)-3-(m-tolyl)propanamide]	1 to 10
Cc1c(-c2ccncc2)n[nH]c1NC(=O)CCc1ccc(Cl)s1 [Example 74]	< 1
O=C1N(Cc2ccc(Cl)cc2)CCN1c1cnn(-c2ccncc2)c1 [Example 158, 1-(4-Chlorobenzyl)-3-(1-(pyridin-4-yl)-1H-pyrazol-4-yl)imidazolidin-2-one]	1 to 10
O=C(NCc1cc(F)c(F)c(F)c1)Nc1[nH]nc(-c2ccncc2)c1Cl [Example 145, 1-(4-Chloro-3-(pyridin-4-yl)-1H-pyrazol-5-yl)-3-(3,4,5-trifluorobenzyl)urea]	< 1
O=C(CCc1ccc(Cl)cc1)Nc1[nH]nc(-c2ccncc2)c1C(F)(F)F [Example 125, 3-(4-Chlorophenyl)-N-[3-(pyridin-4-yl)-4-(trifluoromethyl)-1H-pyrazol-5-yl]propanamide]	< 1

The next lines start with the values.

IC50 [µM]	Compound
< 1	CCc1c(-c2ccncc2)n[nH]c1NC(=O)CCc1cc(F)c(Cl)c(F)c1 [Example 13, 3-(4-Chloro-3,5-difluorophenyl)-N-(4-ethyl-3-(pyridin-4-yl)-1H-pyrazol-5-yl)propanamide]
< 1	O=C(CCc1ccc(Cl)cc1)Nc1[nH]nc(-c2ccncc2)c1C1CC1 [Example 123, 3-(4-Chlorophenyl)-N-(4-cyclopropyl-3-(pyridin-4-yl)-1H-pyrazol-5-yl)propanamide]
1 to 10	COc1cnccc1-c1cc(NC(=O)CCc2ccc(Cl)cc2)[nH]n1 [Example 169, 3-(4-Chlorophenyl)-N-(3-(3-methoxypyridin-4-yl)-1H-pyrazol-5-yl)propanamide]
1 to 10	Cc1c(-c2ccncc2)n[nH]c1NC(=O)CCc1ncc(Cl)s1 [Example 76]
< 1	O=C1CC(c2ccc(Cl)cc2)CC(=O)N1c1cc(-c2ccncc2)n[nH]1 (racemic) [Example 155, (rac)-4-(4-Chlorophenyl)-1-(3-(pyridin-4-yl)-1H-pyrazol-5-yl)piperidine-2,6-dione]
< 1	Cc1c(-c2ccncc2)n[nH]c1NC(=O)CCc1ccc2c(c1)OCO2 [Example 20, 3-(Benzo[d][1,3]dioxol-5-yl)-N-(4-methyl-3-(pyridin-4-yl)-1H-pyrazol-5-yl)propanamide]
< 1	N#Cc1ccc(CCC(=O)Nc2cc(-c3ccncc3)n[nH]2)cc1F [Example 103]
< 1	O=C(CCc1cc(F)c(Cl)c(F)c1)Nc1cnn(-c2ccncc2)c1Cl [Example 91, N-(5-Chloro-1-(pyridin-4-yl)-1H-pyrazol-4-yl)-3-(4-chloro-3,5-difluorophenyl)propanamide]
< 1	CC(=O)N(C(=O)CCc1ccc(Cl)cc1)c1[nH]nc(-c2ccncc2)c1C [Example 1]
1 to 10	Cc1c(-c2ccncc2)n[nH]c1NC(=O)CCc1cccc2ccccc12 [Example 29, N-(4-Methyl-3-(pyridin-4-yl)-1H-pyrazol-5-yl)-3-(naphthalen-1-yl)propanamide]
< 1	Cc1c(-c2ccncc2)n[nH]c1NC(=O)CCc1cc(Cl)cs1 [Example 73]
1 to 10	Cc1c(-c2ccncc2)n[nH]c1NC(=O)CCc1cc(Cl)cc(Cl)c1 [Example 21, 3-(3,5-Dichlorophenyl)-N-(4-methyl-3-(pyridin-4-yl)-1H-pyrazol-5-yl)propanamide]
< 1	O=C(CCc1cc(F)c(F)c(F)c1)Nc1[nH]nc(-c2ccncc2)c1Cl [Example 167, N-(4-Chloro-3-(pyridin-4-yl)-1H-pyrazol-5-yl)-3-(3,4,5-trifluorophenyl)propanamide]
< 1	Cc1c(-c2ccncc2)n[nH]c1NC(=S)CCc1ccc(Cl)cc1 [Example 124, 3-(4-Chlorophenyl)-N-[4-methyl-3-(pyridin-4-yl)-1H-pyrazol-5-yl]propanethioamide]
< 1	Cc1c(-c2ccncc2)n[nH]c1NC(=O)CCc1ccc(Cl)c(F)c1 [Example 64, 3-(4-Chloro-3-fluorophenyl)-N-(4-methyl-3-(pyridin-4-yl)-1H-pyrazol-5-yl)propanamide]
< 1	Cc1c(-c2ccncc2)n[nH]c1NC(=O)CCc1ccc(OC(F)(F)F)cc1 [Example 54, N-(4-Methyl-3-(pyridin-4-yl)-1H-pyrazol-5-yl)-3-(4-(trifluoromethoxy)phenyl)propanamide]
< 1	Cc1c(-c2ccncc2)n[nH]c1NC(=O)CCc1ccc(F)c(F)c1F [Example 51, N-(4-Methyl-3-(pyridin-4-yl)-1H-pyrazol-5-yl)-3-(2,3,4-trifluorophenyl)propanamide]
< 1	Cn1c(NC(=O)CCc2ccc(Cl)cc2)cnc1-c1ccncc1 [Example 105, 3-(4-Chlorophenyl)-N-(1-methyl-2-(pyridin-4-yl)-1H-imidazol-5-yl)propanamide]
< 1	Cc1c(-c2ccncc2)n[nH]c1NC(=O)CCc1ccc(Cl)cc1F [Example 41, 3-(4-Chloro-2-fluorophenyl)-N-(4-methyl-3-(pyridin-4-yl)-1H-pyrazol-5-yl)propanamide]
< 1	O=C(NCc1ccc(Cl)cc1)Nc1cc(-c2ccncc2)n[nH]1 [Example 165, 1-(4-Chlorobenzyl)-3-(3-(pyridin-4-yl)-1H-pyrazol-5-yl)urea]
< 1	Cc1c(-c2ccncc2)n[nH]c1N(C(=O)CCc1cc(F)c(Cl)c(F)c1)C(=O)CCc1cc(F)c(Cl)c(F)c1 [Example 9, 3-(4-Chloro-3,5-difluorophenyl)-N-(3-(4-chloro-3,5-difluorophenyl)propanoyl)-N-(4-methyl-3-(pyridin-4-yl)-1H-pyrazol-5-yl)propanamide]
< 1	Cc1c(-c2ccncc2)n[nH]c1NC(=O)C[S+]([O-])c1ccc(Cl)cc1 (centres unmarked) [Example 120, 2-((4-chlorophenyl)sulfinyl)-N-(4-methyl-3-(pyridin-4-yl)-1H-pyrazol-5-yl)acetamide]
< 1	Cc1c(-c2ccncc2)n[nH]c1N(C(=O)CCc1ccc(Cl)cc1)C(=O)CCC1CCCC1 [Example 8, 3-(4-Chlorophenyl)-N-(3-cyclopentylpropanoyl)-N-(4-methyl-3-(pyridin-4-yl)-1H-pyrazol-5-yl)propanamide]

From patent US12404265B2, “Substituted pyridine derivatives as SARM1 inhibitors” (Nura Bio, Inc., priority 2020, dated 2025)
